Where two headings read alike, the source gives them in different places.
What was measured:
VHR = VHR (Homo sapiens, UniProt P51452); assay: VHR phosphatase inhibition, general phosphatase assay using para-nitrophenylphosphate; assay type: biochemical; details: read-out: IC50 Target VHR
From the text: (§1) Assays protocols for the other enzymes mentioned herein (MtPTPA, PP1, VHR, PTP1B) are disclosed in Schweizer R A S, Atanasov, G A, Frey B M, and Odermatt A, Mol. Cell. Endocrinol. 2003, 212, 41-49 and Barratte, B., Meijer L., Galaktionov K. & Beach D, Anticancer Res. 1992, 12, 873-880. For determination of the phosphatase activity, a general phosphatase assay using para-nitrophenylphosphate was applied.

Cdc25A = target: T1, Cdc25A (Homo sapiens, UniProt P30304); assay: Cdc25A phosphatase inhibition; assay type: biochemical
T1 sequence (P30304 1-524): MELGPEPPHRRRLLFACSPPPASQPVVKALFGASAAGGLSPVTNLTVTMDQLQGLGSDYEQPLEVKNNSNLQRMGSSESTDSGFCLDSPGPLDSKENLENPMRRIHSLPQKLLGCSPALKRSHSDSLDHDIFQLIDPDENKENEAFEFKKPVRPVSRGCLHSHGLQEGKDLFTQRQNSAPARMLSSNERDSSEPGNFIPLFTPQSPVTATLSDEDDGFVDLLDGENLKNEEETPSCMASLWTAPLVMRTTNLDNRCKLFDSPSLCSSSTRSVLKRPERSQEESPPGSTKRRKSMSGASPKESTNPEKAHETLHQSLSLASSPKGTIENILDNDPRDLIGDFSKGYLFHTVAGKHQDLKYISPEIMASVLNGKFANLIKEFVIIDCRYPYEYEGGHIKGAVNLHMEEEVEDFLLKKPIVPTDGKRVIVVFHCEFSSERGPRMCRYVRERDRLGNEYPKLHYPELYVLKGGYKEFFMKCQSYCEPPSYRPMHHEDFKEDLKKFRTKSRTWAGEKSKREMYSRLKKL
From the text: (§2) Assay protocols for Cdc25A, 11βHSD1, 11βHSD2, and AChE are described in detain in the publication of Koch M A, Wittenberg L O, Basu S, Jeyaraj D A, Gourzoulidou E, Reinecke K, Odermatt A, Waldmann H (Proc. Natl. Acad. Sci. U.S.A. 2004 Nov. 30; 101(48):16721-6) and in Koch M A et al., Proc. Natl. Acad. Sci. U.S.A. 2005 Nov. 29; 102 (48):17272-7.

11beta-HSD1 = 11beta-HSD1 (Homo sapiens, UniProt P28845); assay: biochemical; details: read-out: IC50 Target 11beta-HSD1
From the text: as §2

PTP1B = target: T2, PTP1B (Homo sapiens, UniProt P18031); assay: PTP1B phosphatase inhibition, general phosphatase assay using para-nitrophenylphosphate; assay type: biochemical; details: read-out: IC50 Target PTP1B
T2 sequence (P18031 1-435): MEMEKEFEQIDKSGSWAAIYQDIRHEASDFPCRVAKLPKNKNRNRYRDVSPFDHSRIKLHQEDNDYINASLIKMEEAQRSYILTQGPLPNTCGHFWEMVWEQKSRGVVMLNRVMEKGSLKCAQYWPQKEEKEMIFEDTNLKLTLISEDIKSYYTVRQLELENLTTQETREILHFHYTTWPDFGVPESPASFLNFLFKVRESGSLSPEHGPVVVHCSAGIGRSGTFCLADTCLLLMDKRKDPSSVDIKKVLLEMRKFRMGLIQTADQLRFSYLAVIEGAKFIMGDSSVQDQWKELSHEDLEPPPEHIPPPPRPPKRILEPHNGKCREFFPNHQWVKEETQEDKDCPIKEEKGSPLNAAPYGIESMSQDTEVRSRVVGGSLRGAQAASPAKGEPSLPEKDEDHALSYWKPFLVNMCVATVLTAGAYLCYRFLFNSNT
From the text: as §1

11beta-HSD1, sequence (P28845 whole entry): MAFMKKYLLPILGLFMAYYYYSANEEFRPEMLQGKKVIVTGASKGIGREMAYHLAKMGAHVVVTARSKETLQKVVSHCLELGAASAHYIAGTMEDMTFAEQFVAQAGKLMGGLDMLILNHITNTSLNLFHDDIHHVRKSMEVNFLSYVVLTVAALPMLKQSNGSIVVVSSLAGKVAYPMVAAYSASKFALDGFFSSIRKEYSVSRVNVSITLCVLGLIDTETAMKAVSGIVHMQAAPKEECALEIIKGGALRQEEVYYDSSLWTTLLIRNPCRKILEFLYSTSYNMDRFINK
VHR, sequence (P51452 whole entry, species assumed): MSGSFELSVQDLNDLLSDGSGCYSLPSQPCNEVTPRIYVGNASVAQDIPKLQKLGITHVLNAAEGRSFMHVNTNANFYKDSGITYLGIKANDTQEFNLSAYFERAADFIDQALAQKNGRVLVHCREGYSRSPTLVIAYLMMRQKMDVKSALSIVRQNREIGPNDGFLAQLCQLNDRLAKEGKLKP

| SMILES | IC50 (VHR) | IC50 (Cdc25A; read-out: IC50 Target Cdc25A) | IC50 (11beta-HSD1) | IC50 (PTP1B) | IC50 (Cdc25A) |
| --- | --- | --- | --- | --- | --- |
| C[C@]12C/C(=C\c3ccc(C#CC4(O)CCCCC4)cc3)C(=O)C=C1CCC[C@@H]2O [Compound 138, (3E,4aS,5S)-3-{4-[2-(1-Hydroxycyclohexyl)ethinyl]benzyliden}-4,4a,5,6,7,8-hexahydro-5-hydroxy-4a-methylnaphthalen-2(3H)-one] | 10 to 50 µM | < 10 µM | – | – | – |
| CC1C=CCC2CCCC(=O)C12 (centres unmarked) [Compound 407, 8-Methyl-3,4,4a,5,8,8a-hexahydro-2H-naphthalen-1-one] | – | – | < 10 µM | – | – |
| COc1ccc(/C=C2\C[C@@]3(C)C(=C(C)C2=O)CCC[C@@H]3O)c(O)c1 [Compound 14, (3E,4aS,5S)-3-(2-Hydroxy-4-methoxybenzyliden)-4,4a,5,6,7,8-hexahydro-5-hydroxy-1,4a-dimethylnaphthalen-2(3H)-one] | – | – | < 10 µM | – | – |
| CC1=C2CCC[C@H](O)[C@@]2(C)C/C(=C\c2ccc(C#CC(C)(C)O)cc2)C1=O [Compound 44, (3E,4aS,5S)-3-[4-(3-Hydroxy-3-methylbut-1-inyl)benzyliden]-4,4a,5,6,7,8-hexahydro-5-hydroxy-1,4a-dimethyl-naphthalen-2(3H)-one] | 10 to 50 µM | 10 to 50 µM | – | 10 to 50 µM | – |
| CCCCCCCCCCC/C=C1\C[C@@]2(C)C(=C(C)C1=O)CCC[C@@H]2O [Compound 22, (3E,4aS,5S)-3-Dodecyliden-4,4a,5,6,7,8-hexahydro-5-hydroxy-1,4a-dimethylnaphthalen-2(3H)-one] | – | – | < 10 µM | – | – |
| CC1=C2CCC[C@H](O)[C@@]2(C)C/C(=C\c2ccc(C#CCN(C)C)cc2)C1=O [Compound 51, (3E,4aS,5S)-3-{4-[3-(Dimethylamino)prop-1-inyl]benzyliden}-4,4a,5,6,7,8-hexahydro-5-hydroxy-1,4a-dimethylnaphthalen-2(3H)-one] | 10 to 50 µM | < 10 µM | – | 10 to 50 µM | – |
| CC1C=CCC2CCC(=Cc3ccco3)C(=O)C12 (centres unmarked) [Compound 394, 2-Furan-2-ylmethylene-8-methyl-3,4,4a,5,8,8a-hexahydro-2H-naphthalen-1-one] | 10 to 50 µM | 10 to 50 µM | – | < 10 µM | – |
| CC1=C2CCC[C@H](O)[C@@]2(C)C/C(=C\c2ccoc2)C1=O [Compound 8, (3E,4aS,5S)-3-[(Furan-3-yl)methylen]-4,4a,5,6,7,8-hexahydro-5-hydroxy-1,4a-dimethylnaphthalen-2(3H)-one] | < 10 µM | 10 to 50 µM | – | 10 to 50 µM | – |
| CC1=C2CCC[C@H](O)[C@@]2(C)C/C(=C\c2cccnc2)C1=O [Compound 10, (3E,4aS,5S)-4,4a,5,6,7,8-Hexahydro-5-hydroxy-1,4a-dimethyl-3-[(pyridin-3-yl)methylen]naphthalen-2(3H)-one] | – | – | < 10 µM | – | – |
| CSc1ccc(/C=C2\C[C@@]3(C)C(=C(C)C2=O)CCC[C@@H]3O)cc1 [Compound 11, (3E,4aS,5S)-3-[4-(Methylthio)benzyliden]-4,4a,5,6,7,8-hexahydro-5-hydroxy-1,4a-dimethylnaphthalen-2(3H)-one] | – | – | < 10 µM | – | – |
| CCOC(C#Cc1ccc(/C=C2\C[C@@]3(C)C(=C(C)C2=O)CCC[C@@H]3O)cc1)OCC [Compound 46, (3E,4aS,5S)-3-[4-(3,3-Diethoxyprop-1-inyl)benzyliden]-4,4a,5,6,7,8-hexahydro-5-hydroxy-1,4a-dimethylnaphthalen-2(3H)-on] | 10 to 50 µM | < 10 µM | – | 10 to 50 µM | – |
| C=C1C(C)=C2CCC[C@H](O)[C@@]2(C)C/C1=C\c1ccccc1 [Compound 97, (1S,7E,8aS)-7-Benzyliden-1,2,3,4,6,7,8,8a-octahydro-5,8a-dimethyl-6-methylennaphthalen-1-ol] | – | – | < 10 µM | – | – |
| C=C1C(C)=C2CCC[C@H](O)[C@@]2(C)C/C1=C\CCCC [Compound 98, (1S,7E,8aS)-1,2,3,4,6,7,8,8a-Octahydro-5,8a-dimethyl-6-methylen-7-pentylidennaphthalen-1-ol] | – | – | < 10 µM | – | – |
| CCCCC1(C)C(=O)CC[C@@]2(C)C1CCC[C@@H]2O (stereo partly drawn) [Compound 414, (4aS,5S)-1-Butyl-5-hydroxy-1,4a-dimethyl-1-octahydro-naphthalen-2-one] | – | 10 to 50 µM | – | 10 to 50 µM | – |
| CC1=C2CCC[C@H](O)[C@@]2(C)C/C(=C\C=C\c2ccco2)C1=O [Compound 60, (3E,4aS,5S)-3-[(E)-3-(Furan-2-yl)allyliden]-4,4a,5,6,7,8-hexahydro-5-hydroxy-1,4a-dimethylnaphthalen-2(3H)-one] | 10 to 50 µM | 10 to 50 µM | – | 10 to 50 µM | – |
| C#CCCCCCC#Cc1ccc(/C=C2\C[C@@]3(C)C(=C(C)C2=O)CCC[C@@H]3O)cc1 [Compound 42, (3E,4aS,5S)-3-[4-(Nona-1,8-diinyl)benzyliden]-4,4a,5,6,7,8-hexahydro-5-hydroxy-1,4a-dimethyl-naphthalen-2(3H)-one] | – | < 10 µM | – | – | – |
| CC1=C2CCC[C@H](O)[C@@]2(C)C/C(=C\c2ccc(C#CC3CCCCC3)cc2)C1=O [Compound 73, (3E,4aS,5S)-3-[4-(2-Cyclohexyl-ethinyl)benzyliden]-4,4a,5,6,7,8-hexahydro-5-hydroxy-1,4a-dimethylnaphthalen-2(3H)-one] | – | – | < 10 µM | – | – |
| C[C@]12C/C(=C\c3ccc(C#C[Si](C)(C)C)cc3)C(=O)C=C1CCC[C@@H]2O [Compound 137, (3E,4aS,5S)-3-{4-[2-(Trimethylsilyl)ethinyl]benzyliden}-4,4a,5,6,7,8-hexahydro-5-hydroxy-4a-methylnaphthalen-2(3H)-one] | 10 to 50 µM | – | – | – | < 10 µM |
| CC1=C2CCCC(=O)[C@@]2(C)CC/C1=C1/C=CC(=O)O1 [Compound 401, (2E,4aS)-5-(1,4a-Dimethyl-5-oxo-4,4a,5,6,7,8-hexahydro-3H-naphthalen-2-ylidene)-5H-furan-2-one] | 10 to 50 µM | 10 to 50 µM | – | – | – |
| CC1(Cc2cccc(I)c2)C(=O)CC[C@@]2(C)C1CCC[C@@H]2O (stereo partly drawn) [Compound 398, (4aS,5S)-5-Hydroxy-1-(3-iodo-benzyl)-1,4a-dimethyl-octahydro-naphthalen-2-one] | 10 to 50 µM | 10 to 50 µM | – | 10 to 50 µM | – |
| CC1=C2CCC[C@H](O)[C@@]2(C)CC(=Cc2ccc(NC3CCCCC3)cc2)C1=O [Compound 399, (4aS,5S)-3-(4-Cyclohexylamino-benzylidene)-5-hydroxy-1,4a-dimethyl-4,4a,5,6,7,8-hexahydro-3H-naphthalen-2-one] | – | – | < 10 µM | – | – |
| CCc1ccc(/C=C2\C[C@@]3(C)C(=C(C)C2=O)CCC[C@@H]3O)c(C)c1 [Compound 23, (3E,4aS,5S)-3-(4-Ethyl-2-methylbenzyliden)-4,4a,5,6,7,8-hexahydro-5-hydroxy-1,4a-dimethylnaphthalen-2(3H)-one] | – | – | < 10 µM | – | – |
| CC1=C2CCC[C@H](O)[C@@]2(C)C/C(=C\c2ccc(C#CC(C)OC(C)(C)C)cc2)C1=O (stereo partly drawn) [Compound 38, (3E,4aS,5S)-3-[4-(3-tert-Butoxybut-1-inyl)benzyliden]-4,4a,5,6,7,8-hexahydro-5-hydroxy-1,4a-dimethylnaphthalen-2(3H)-one] | 10 to 50 µM | < 10 µM | – | 10 to 50 µM | – |
| CCCCC#Cc1ccc(/C=C2\C[C@@]3(C)C(=C(C)C2=O)CCC[C@@H]3O)cc1 [Compound 40, (3E,4aS,5S)-3-[4-(Hex-1-inyl)benzyliden]-4,4a,5,6,7,8-hexahydro-5-hydroxy-1,4a-dimethyl-naphthalen-2(3H)-one] | 10 to 50 µM | 10 to 50 µM | – | 10 to 50 µM | – |
| CC1=C2CCC[C@H](O)[C@@]2(C)C/C(=C\c2ccc(C#CC3(O)CCCCC3)cc2)C1=O [Compound 48, (3E,4aS,5S)-3-{4-[2-(1-Hydroxycyclohexyl)ethinyl]benzyliden}-4,4a,5,6,7,8-hexahydro-5-hydroxy-1,4a-dimethylnaphthalen-2(3H)-one] | – | 10 to 50 µM | – | – | – |

Source: patent publication US20090062401A1, “DECALINE-DERIVED COMPOUNDS AS […] ACTIVE AGENTS” (UNIVERSITAT DORTMUND, priority 2004, published 2009)
